Measurements taken from patent US5521155A, “Amides of teicoplanin compounds” (Gruppo Lepetit S.p.A, priority 1985, dated 1996).
Converted amounts (≈) assume the structure as drawn.

Assays:
S. pneumoniae UC 41 = assay: In vitro antibacterial activity, standard agar-dilution test (MIC); format: cell-based; conditions: inoculum about 10^4 CFU/ml, 18-24 h at 37° C.
Experimental: (§1) The culture medium ISOSENSITEST BROTH (Oxoid) and the colture medium TODD-[…] BROTH (Difco) are used for growing staphylococci and streptococci, respectively. Broth cultures are diluted so that the final inoculum is about 10^4 colony forming units/ml (CFU/ml).

[1] = test system: Pseudomonas aeruginosa ATCC 10145; assay: as above; format: cell-based; conditions: inoculum about 10^4 CFU/ml, 18-24 h at 37° C.
Experimental: as §1

S. pyogenes C 203 = assay: as above; format: cell-based; conditions: inoculum about 10^4 CFU/ml, 18-24 h at 37° C.
Experimental: as §1

[2] = test system: S. epidermidis ATCC 12228; assay: as above; format: cell-based; conditions: inoculum about 10^4 CFU/ml, 18-24 h at 37° C.
Experimental: as §1

S. faecalis ATCC 7080 = assay: as above; format: cell-based; conditions: inoculum about 10^4 CFU/ml, 18-24 h at 37° C.
Experimental: as §1

S. aureus Tour = assay: as above; format: cell-based; conditions: inoculum about 10^4 CFU/ml, 18-24 h at 37° C.
Experimental: as §1

[3] = test system: Proteus vulgaris X 19H ATCC 881; assay: as above; format: cell-based; conditions: inoculum about 10^4 CFU/ml, 18-24 h at 37° C.
Experimental: as §1

E. coli SKF 12140 = assay: as above; format: cell-based; conditions: inoculum about 10^4 CFU/ml, 18-24 h at 37° C.
Experimental: as §1

S. pyogenes L 49 = assay: In vivo test in mice experimentally infected with S. pyogenes L 49 (ED50); conditions: mice infected with S. pyogenes L 49; for ED50, route of administration os.: oral
[4] = Isoelectric point (pI) by isoelectrofocusing with bioautography detection; format: physicochemical; conditions: IEF technique, polyacrylamide gel
Source text: The isoelectrofocusing (IEF) technique coupled with bioautography detection has been used for the determination of the pI of representative compounds of the invention using the following materials: AMPHOLINE carrier ampholytes (40% w/v) were purchased from LKB Produketer AB, Bromma, Sweden. Acrylamide, N,N'-methylenbisacrylamide (BIS), N,N,N',N'-tetramethylethylenediamine (TEMED) and ammonium persulfate were from Bio Rad Laboratorie, Richmond, Calif., USA. Glycerol and Antibiotic agar N. 1 (Grove and Randall medium N. 1) were from E. Merck Darmstadt FRG. GEL FIX polyester sheets were purchased from Serva Feinbiochemica Heidelberg. Phenolindo (2,6-dichlorophenol) came from BDH Chemicals Ltd. Poole, England.
IEF was made on gel slab using a LKB MULITPHOR 2117 cell and a Bio-Rad Power Supply Model 1420A. Slabs of 24.5×11.5 cm and 1 mm thickness were prepared on a sheet of GEL FIX. Polyacrylamide gels with a concentration of 8% T and with a cross-linkage of 4% C (30% T stock solution was prepared by dissolving 28.8 g of acrylamide and 1.2 g of bis-acrylamide in 100 ml distilled water), glycerol, 3.5% v/v, 2% AMPHOLINE, 0.05% ammonium persulphate as catalyst and 0.05% TEMED as accelerator. The carrier ampholite composition for 35 ml gelling solution was as follows:
The electrode solutions, as recommended by LKB for the respective pH range, were:
The gel was cooled to 4° C. with the aid of a LKB 2209 refrigerated constant temperature circulator. After prefocusing for 30 min. at 5 W, the samples (20 μl containing 0.2 to 2.5 μg of antibiotic) were loaded into the slot at the cathodic side. Electrofocusing was performed using 10 W constant power and was completed after 3-31/2 hours with a final potential of 1400 V.
The pH values were determined by dividing a portion of the gel into 1 cm sections, and eluting the individual pieces at room temperature with 1 ml of 10 mM KCl prior to pH readings.
The isoelectric point of each antibiotic was determined by interpolation on a curve obtained by plotting pH values versus the distance from the anode.
Polyacrylamide gel was placed on a 3 mm layer of agar medium N. 1 inoculated with 1% of Bacillus subtilis ATCC 6633 spore (0.5 OD at 600 nm). After 10 min the gel was removed and the plate was incubated overnight at 37° C. and examined for inhibition zones. The contrast between the area of lysis and that of bacterial growth was enhanced by use of Phenolindo(2,6-dichlorophenol) 1% w/v (oxidation-reduction indicator).

Acid-base titration (pK) = format: physicochemical; conditions: acid-base titration in METHYLCELLOSOLVE/H2O 4:1 (v/v), 0.01N KOH; salt form per Table IV
Experimental: The following table (Table IV) reports the acid-base titration data of some representative compounds of the invention. The assays were carried out in METHYLCELLOSOLVE/H2 O, 4:1(v/v). A sample is dissolved in METHYLCELLOSOLVE/H2 O, 4:1(v/v) (10 umole in about 20 ml) and then 0.01N HCl (2 ml) is added and the mixture is titrated with 0.01N KOH in the same solvent mixture.

Cl.Cl.NC1C(=O)NC2Cc3ccc(c(Cl)c3)Oc3cc4cc(c3O)Oc3ccc(cc3Cl)C(O)C3NC(=O)C(NC(=O)C4NC(=O)C(NC2=O)c2cc(O)cc(c2)Oc2cc1ccc2O)c1ccc(O)c(c1)-c1c(O)cc(O)cc1C(C(=O)NCCCN1CCOCC1)NC3=O (stereo not shown) [Compound 78]
MIC S. pneumoniae UC 41 (S. pneumoniae UC 41): 0.12 µg/mL | MIC Pseudomonas aeruginosa ATCC 10145 [1]: 32 µg/mL | MIC S. pyogenes C 203 (S. pyogenes C 203): 0.06 µg/mL | MIC S. epidermidis ATCC 12228 [2]: 0.06 µg/mL | MIC S. faecalis ATCC 7080 (S. faecalis ATCC 7080): 0.12 µg/mL | MIC S. aureus Tour (S. aureus Tour): 0.06 µg/mL | MIC Proteus vulgaris X 19H ATCC 881 [3]: 64 µg/mL | MIC E. coli SKF 12140 (E. coli SKF 12140): 8 µg/mL | ED50, route of administration os. (S. pyogenes L 49): > 300 mg/kg | ED50, route of administration s.c (S. pyogenes L 49): 1.4 mg/kg | Isoelectric point (pI) [4]: 8.1

NC1C(=O)NC2Cc3ccc(c(Cl)c3)Oc3cc4cc(c3O)Oc3ccc(cc3Cl)C(O)C3NC(=O)C(NC(=O)C4NC(=O)C(NC2=O)c2cc(O)cc(c2)Oc2cc1ccc2O)c1ccc(O)c(c1)-c1c(O)cc(O)cc1C(C(=O)NCCCCCC(=O)NC1C(O)OC(CO)C(O)C1O)NC3=O (stereo not shown) [Compound 31]
pK1 (Acid-base titration (pK)): 6.45 | MIC S. pneumoniae UC 41 (S. pneumoniae UC 41): 0.25 µg/mL (≈ 0.17 µM) | MIC Pseudomonas aeruginosa ATCC 10145 [1]: > 128 µg/mL | MIC S. pyogenes C 203 (S. pyogenes C 203): 0.12 µg/mL (≈ 0.0815 µM) | MIC S. epidermidis ATCC 12228 [2]: 0.063 µg/mL (≈ 0.0428 µM) | MIC S. faecalis ATCC 7080 (S. faecalis ATCC 7080): 0.25 µg/mL (≈ 0.17 µM) | MIC S. aureus Tour (S. aureus Tour): 0.5 µg/mL (≈ 0.339 µM) | MIC Proteus vulgaris X 19H ATCC 881 [3]: > 128 µg/mL | MIC E. coli SKF 12140 (E. coli SKF 12140): 64 µg/mL (≈ 43.4 µM) | ED50, route of administration os. (S. pyogenes L 49): > 300 mg/kg | ED50, route of administration s.c (S. pyogenes L 49): 2.9 mg/kg | Isoelectric point (pI) [4]: 7.9

NCCCCC(NC(=O)C1NC(=O)C2NC(=O)C(NC(=O)C3NC(=O)C4NC(=O)C(Cc5ccc(c(Cl)c5)Oc5cc3cc(c5O)Oc3ccc(cc3Cl)C2O)NC(=O)C(N)c2ccc(O)c(c2)Oc2cc(O)cc4c2)c2ccc(O)c(c2)-c2c(O)cc(O)cc21)C(=O)O (stereo not shown) [Compound 84]
MIC S. pneumoniae UC 41 (S. pneumoniae UC 41): 0.12 µg/mL (≈ 0.0904 µM) | MIC Pseudomonas aeruginosa ATCC 10145 [1]: > 128 µg/mL | MIC S. pyogenes C 203 (S. pyogenes C 203): 0.12 µg/mL (≈ 0.0904 µM) | MIC S. epidermidis ATCC 12228 [2]: 0.06 µg/mL (≈ 0.0452 µM) | MIC S. faecalis ATCC 7080 (S. faecalis ATCC 7080): 0.12 µg/mL (≈ 0.0904 µM) | MIC S. aureus Tour (S. aureus Tour): 0.12 µg/mL (≈ 0.0904 µM) | MIC Proteus vulgaris X 19H ATCC 881 [3]: > 128 µg/mL | MIC E. coli SKF 12140 (E. coli SKF 12140): 64 µg/mL (≈ 48.2 µM) | ED50, route of administration os. (S. pyogenes L 49): > 300 mg/kg | ED50, route of administration s.c (S. pyogenes L 49): 1.65 mg/kg | Isoelectric point (pI) [4]: 7.8

CN(C)CCCCCCCNC(=O)C1NC(=O)C2NC(=O)C(NC(=O)C3NC(=O)C4NC(=O)C(Cc5ccc(c(Cl)c5)Oc5cc3cc(c5O)Oc3ccc(cc3Cl)C2O)NC(=O)C(N)c2ccc(O)c(c2)Oc2cc(O)cc4c2)c2ccc(O)c(c2)-c2c(O)cc(O)cc21 (stereo not shown) [Compound 101]
MIC S. pneumoniae UC 41 (S. pneumoniae UC 41): 0.12 µg/mL (≈ 0.0896 µM) | MIC Pseudomonas aeruginosa ATCC 10145 [1]: 128 µg/mL (≈ 95.6 µM) | MIC S. pyogenes C 203 (S. pyogenes C 203): 0.06 µg/mL (≈ 0.0448 µM) | MIC S. epidermidis ATCC 12228 [2]: 0.06 µg/mL (≈ 0.0448 µM) | MIC S. faecalis ATCC 7080 (S. faecalis ATCC 7080): 0.12 µg/mL (≈ 0.0896 µM) | MIC S. aureus Tour (S. aureus Tour): 0.06 µg/mL (≈ 0.0448 µM) | MIC Proteus vulgaris X 19H ATCC 881 [3]: 128 µg/mL (≈ 95.6 µM) | MIC E. coli SKF 12140 (E. coli SKF 12140): 16 µg/mL (≈ 11.9 µM) | Isoelectric point (pI) [4]: 9.1
